{"source": "patent US20200237700A1", "about": "“METHODS OF REDUCING OR PREVENTING OXIDATION OF SMALL DENSE LDL OR MEMBRANE POLYUNSATURATED FATTY ACIDS” (Amarin Pharmaceuticals Ireland Limited, priority 2015, published 2020)", "key": {"[1]": {"experiment": "Small angle x-ray diffraction of glucose-treated model membranes, cholesterol domain peak intensity (Example 4)", "format": "physicochemical", "settings": "96-hour time point; vs vehicle or vitamin E treatments; 1:30; glucose 200 mg/dL", "protocol": "After centrifugal orientation, sample supernatants were aspirated and aluminum foil substrates, each supporting a single membrane pellet, were removed from the sedimentation cells. […] All x-ray diffraction experiments were conducted at 20° C., 74% relative humidity.\nOriented membrane samples were aligned at grazing incidence with respect to a collimated, mono-chromatic CuKα x-ray beam (Kα1 and Kα2 unresolved; λ=1.54 Å) produced by a Rigaku Rotaflex RU-200, high-brilliance microfocus generator (Rigaku-MSC, The Woodlands, Tex.) as previously described (Mason et al., Biophys. J., vol. 55(4), pages 769-778 (1989)).\nRoutines written in Origin 8.6 (OriginLab Corporation, Northampton, Mass.) were used to determine total peak area (associated with all diffraction peaks in a given pattern) against which the second-order cholesterol domain peak was normalized."}, "[2]": {"experiment": "Lipid hydroperoxide (LOOH) formation in cholesterol-enriched model membranes under autoxidation, CHOD-iodide assay (Example 3)", "format": "biochemical", "settings": "EPA to lipids 1:30, C/P 0.6:1", "protocol": "An experiment was conducted to test EPA in model membranes enriched with PUFAs and cholesterol at levels that reproduce disease or high CV-risk conditions (i.e., hypercholesterolemia). […] Levels of lipid hydroperoxides were also measured in cholesterol-enriched membrane prepared in the absence of EPA as a control. […] CHOD-iodide color reagent (stock) was prepared according to a procedure modified from El-Saadani et […], Goher […], Jurgens G. A spectrophotometric assay for lipid peroxides in serum lipoproteins using commercially available reagent. J. Lipid. […] Membrane samples consisting of DLPC±cholesterol were prepared as follows. Component lipids (in chloroform) were transferred to 13×100 mm test tubes and shell-dried under a steady stream of nitrogen gas while vortex mixing. The lipid was co-dried with EPA. Residual solvent was removed by drying for a minimum of 3 h under vacuum. […] Absorbances were measured against a CHOD blank at 365 nm using a Beckman DU-640 spectrophotometer. The CHOD colorimetric assay is based on the oxidation of iodide (I^-) by lipid hydroperoxides (LOOH) and proceeds according to the following reaction scheme: […]3^- The quantity of triiodide anion (I3^-) liberated in this reaction is directly proportional to the amount of lipid hydroperoxides present in the membrane sample."}, "[3]": {"system": "sdLDL isolated from human plasma", "experiment": "Copper-induced sdLDL oxidation 1 hour (Example 12)", "format": "biochemical", "settings": "10.0 μM; copper-induced oxidation 1 hour", "protocol": "All samples, with the exception of non-oxidized sdLDL controls, were subjected to copper-induced oxidation for 1 hour. Human umbilical vein endothelial cells (HUVECs) were incubated with the various sdLDL samples, stimulated with calcium, and monitored for nitric oxide (NO) and peroxynitrite (ONOO^−) release using nanosensor technology."}, "[4]": {"experiment": "Glucose-induced membrane lipid peroxidation (LOOH) in multilamellar vesicles, CHOD-iodide assay (Example 4)", "format": "biochemical", "settings": "for inhibited the peroxidative effects of glucose (LOOH formation): vs glucose alone", "protocol": "Vitamin E (α-tocopherol) was also purchased from Sigma-Aldrich and prepared in ethanol at 1.0 mM (ε=3.06×10^4 M^−1 cm^−1 at 294 nm) just prior to experimental use. […] All test compounds were further diluted in ethanol or aqueous buffer as needed. Glucose was prepared in saline buffer (0.5 mM HEPES, 154 mM NaCl, pH 7.3) at 11.0 mM (200 mg/dL). CHOD-iodide color reagent (stock) was prepared, with slight modification, as described by from El-Saadani et al. (J. […] Samples were shell-dried under nitrogen gas and placed under vacuum for 1 h to remove residual solvent. […] Lipid suspensions were then vortexed for 3 min at ambient temperature to form MLVs. All MLV samples were subjected to time-dependent autoxidation by incubating at 37° C. in an uncovered, shaking water bath. This method allows lipid peroxidation to occur gradually without requiring the use of exogenous initiators. Small aliquots (5-100 μL) of each sample were removed, immediately following MLV preparation (0 hour) and after exposing samples to oxidative conditions for 72 or 96 hour, and combined with 1.0 mL of activated CHOD-iodide color reagent. Aliquot volume was reduced with each successive time point to ensure that spectrophotometric readings were within the optimal adsorption range. Test samples were covered and incubated in darkness at room temperature for at least 4 hr. Sample absorbances were then measured against a CHOD blank at 365 nm using a Beckman DU-640 spectrophotometer. The CHOD colorimetric assay is based on the oxidation of iodide (I^−) by lipid hydroperoxide (LOOH) to form triiodide (I3^−), the quantity of which is directly proportional to the amount of LOOH present in the lipid sample. The molar absorptivity (E) of I3^− is 2.46×10^4 M^−1 cm^−1 at 365 nm. […] The concentration of glucose selected was consistent with previous experimental studies of hyperglycemia under controlled laboratory conditions or observed in well-defined animal models of Type II diabetes following a glucose challenge. […] Values in FIG. 1 are mean±S.D. (N=6). EPA inhibited the peroxidative effects of glucose by 88% and 86% at 72 and 96 hours, respectively, which was highly significant (p<0.001) as compared to glucose treatment alone. […] Overall ANOVA-0 hour data: p=0.6655, F=0.4185; 72 hour data: p<0.0001, F=428.72; 96 hour data: p<0.0001, F=322.01."}, "[5]": {"system": "sdLDL from plasma of healthy volunteers", "experiment": "Time-dependent sdLDL oxidation, MDA formation over 4 hours (Example 13)", "format": "biochemical, human", "settings": "each at 10 μM; 4 hours; 10 μM CuSO4", "protocol": "sdLDL was isolated from the plasma of healthy volunteers by iodixanol density gradient centrifugation and adjusted to a final apolipoprotein concentration of 2 mg/mL. Sample aliquots (100 μg apolipoprotein) were incubated with EPA, DHA, or EPA+DHA (each at 10 μM) for 30 minutes at 37° C. and then treated with 10 μM CuSO4 to initiate lipid oxidation. sdLDL oxidation was measured spectrophotometrically as a function of malondialdehyde (MDA) formation at various intervals over 4 hours. Vitamin E was also tested as a positive control. Experiments were conducted in triplicate and reported as mean±SD."}}, "data": [{"smiles": "CC/C=C\\C/C=C\\C/C=C\\C/C=C\\C/C=C\\CCCC(=O)O", "note": "[EPA, cis-5,8,11,14,17-eicosapentaenoic acid]", "values": [{"measurement": "inhibited relative cholesterol domain peak intensity", "setting": "[1]", "value": "more than 99%"}, {"measurement": "LOOH levels", "setting": "[2]; after autoxidation 37° C. 72 hours", "value": "728 ± 30", "unit": "µM"}, {"measurement": "reduced LOOH levels compared to untreated controls", "setting": "[2]; autoxidation 37° C. 72 hours", "value": "greater than 90%"}, {"measurement": "reduced sdLDL oxidation compared to vehicle treatment alone", "setting": "[3]", "value": "> 90", "unit": "%"}, {"measurement": "effect on LOOH formation / lipid peroxidation", "setting": "[4]; 72- and 96-hour time points, 1:30 drug-to-phospholipid mole ratio, glucose", "value": "significantly inhibited LOOH formation"}, {"measurement": "inhibited the peroxidative effects of glucose (LOOH formation)", "setting": "[4]; 72 hours, glucose 200 mg/dL, 1:30 drug-to-phospholipid mole ratio", "value": 88, "unit": "%"}, {"measurement": "inhibited the peroxidative effects of glucose (LOOH formation)", "setting": "[4]; 96 hours, glucose 200 mg/dL, 1:30 drug-to-phospholipid mole ratio", "value": 86, "unit": "%"}, {"measurement": "antioxidant effects of separate treatments (LOOH formation)", "setting": "[4]; each at 1.0 μM, glucose 200 mg/dL, 96 hours", "value": "potent antioxidant effects"}, {"measurement": "MDA levels", "setting": "[5]", "value": "0.8 ± 0.03", "unit": "µM"}, {"measurement": "reduction in sdLDL oxidation (MDA levels)", "setting": "[5]", "value": 92, "unit": "%"}]}]}
